Assay results published in patent US20210386705A1, “APPLICATION OF CHIGLITAZAR AND RELATED COMPOUNDS THEREOF” (SHENZHEN CHIPSCREEN BIOSCIENCES CO., LTD., priority 2018, published 2021).

Tests used:
[1] = tested on: primary human dermal fibroblasts; test: PDGF-BB stimulated proliferation of dermal fibroblasts (MTT assay); format: cell-based; conditions: MTT 72 hours, FIG. 3
Experimental: Primary human hepatic stellate cells or primary human dermal fibroblasts (HDF), both purchased from Sciencell, were seeded into 96-well plates with complete growth media (Stellate Cell Medium or Fibroblast Cell Medium) for 24 hours, followed by culturing overnight in the culture media free of serum and growth factors, and then the culture media were replaced by fresh medium containing platelet-derived growth factor (PDGF-BB) and the compounds to be tested at various concentrations, and the cells was cultured for another 72 hours. Measurement was performed using a conventional MTT assay kit (Promega). […] The inhibition of cell proliferation by the compounds was determined by comparing the absorbance value of the control group (FIGS. 2, 3).

PPARγ = molecular target: T1, PPARγ (Homo sapiens, UniProt P37231); test: PPAR reporter gene model in L-02 cells, PPARγ; format: cell-based; conditions: luciferase reporter, 24 hours drug, read-out: Half-maximal activation concentration of reporter gene AC50, PPARγ
T1 construct: expressed in transfected cells; host or cells: human hepatocyte cell line L-02
T1 sequence (P37231 1-505): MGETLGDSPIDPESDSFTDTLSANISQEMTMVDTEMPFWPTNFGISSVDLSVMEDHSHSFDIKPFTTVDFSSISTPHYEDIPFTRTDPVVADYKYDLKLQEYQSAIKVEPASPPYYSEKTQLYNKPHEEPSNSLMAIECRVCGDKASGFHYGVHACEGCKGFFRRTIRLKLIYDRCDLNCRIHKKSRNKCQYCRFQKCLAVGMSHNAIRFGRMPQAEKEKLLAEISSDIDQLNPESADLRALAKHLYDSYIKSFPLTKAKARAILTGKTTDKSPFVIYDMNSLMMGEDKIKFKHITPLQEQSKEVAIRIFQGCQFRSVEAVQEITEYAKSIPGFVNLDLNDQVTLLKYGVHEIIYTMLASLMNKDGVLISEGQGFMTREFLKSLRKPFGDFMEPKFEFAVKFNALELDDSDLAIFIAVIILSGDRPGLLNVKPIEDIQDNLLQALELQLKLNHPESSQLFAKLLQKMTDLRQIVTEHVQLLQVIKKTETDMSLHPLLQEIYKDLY
T1 sequence (P19793 1-462 partner): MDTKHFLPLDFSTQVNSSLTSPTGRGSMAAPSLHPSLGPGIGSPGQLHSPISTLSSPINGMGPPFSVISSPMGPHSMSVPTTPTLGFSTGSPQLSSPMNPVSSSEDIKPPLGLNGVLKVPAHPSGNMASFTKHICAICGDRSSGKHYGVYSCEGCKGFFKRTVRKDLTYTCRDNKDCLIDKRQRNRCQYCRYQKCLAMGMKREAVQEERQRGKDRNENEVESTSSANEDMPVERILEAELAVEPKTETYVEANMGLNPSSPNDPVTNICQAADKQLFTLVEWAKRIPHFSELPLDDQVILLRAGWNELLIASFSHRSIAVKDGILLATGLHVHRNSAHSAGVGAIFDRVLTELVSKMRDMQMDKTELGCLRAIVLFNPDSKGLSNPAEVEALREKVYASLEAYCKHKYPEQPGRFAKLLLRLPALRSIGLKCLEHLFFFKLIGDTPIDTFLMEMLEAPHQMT
Experimental: The PPAR reporter gene model comprises three subtypes of expression plasmids, RXR expression plasmid, plasmid with luciferase reporter gene, and GFP expression plasmid as an external reference. The human hepatocyte cell line L-02 cells were seeded into 96-well plates at the density of 15,000 cells/well with about 50% plating rate, followed by culturing for 24 hours at 37° C. […] The fluorescence intensity (at wavelength 485-527 nm) of green fluorescent protein (GFP) in each well was firstly detected as an internal standard by a fluorescence detector, and then 30 μL of luciferase substrates (Promega, E151A) were added to each well. After slightly shaking to mix well, the […] were detected. The relative reporter gene activation intensity was obtained by the ratio of the fluorescence detection signal of the drugs to be tested to that of the solvent control, with both the signals normalized to the internal standard GFP signal. The half-maximal activation (AC50) of the drugs to be tested was calculated with the activity at various concentrations (shown in Table 1).

THP-1 cells = test: Inflammatory factor gene expression (MCP-1, TNFα) in PMA-activated THP-1 cells (qPCR); format: cell-based, human; conditions: 6 hours, FIG. 5
Experimental: Human acute monocytic leukemia mononuclear cell line (THP-1) cells were activated by a certain concentration of phorbol esters (Phorbol-12-myristate-13-acetate, PMA) and differentiated into macrophages. Through this cell model, the activating effects of sodium chiglitazar and other compounds on the expression of THP-1 related inflammatory factors were detected.
THP-1 cells were seeded into 6-well plates with complete growth media for 24 hours, and then the culture media were replaced by fresh media containing PMA and the compound to be tested (sodium chiglitazar) or the reference compound GFT505 (PPARα/δ dual agonist), and the cells were cultured for 6 hours. The total RNAs of the samples were extracted, and cDNA templates were synthesized by reverse transcription reaction (Transcriptor First Strand cDNA Synthesis Kit, Roche). Thereafter, a conventional PCR amplification kit (FastStart Universal SYBR@ Green Master (ROX), Roche) was used for semi-quantitative gene expression detection on the ABI StepOnePlus real-time quantitative PCR instrument.
The relative expression change of the target genes was obtained by using the internal reference β-actin gene (ACTB) as the standard for normalization, compared with the untreated cell samples, and the relative expression change folds were calculated (FIG. 5).

O=C(c1ccc(F)cc1)c1ccccc1N[C@@H](Cc1ccc(OCCn2c3ccccc3c3ccccc32)cc1)C(=O)[O-].[Na+] [sodium chiglitazar]
Inhibition of in vitro proliferation of skin-derived fibroblasts [1]: had inhibitory activity | AC50 (PPARγ): 0.091 µM | Inhibition of phorbol esters-mediated activation of monocyte and related gene expression (THP-1 cells): significantly inhibit
